Results reported in patent US5314999A, “Derivatives of basic polyene macrolides and their preparation” (Laboratoires Mayoly-Spindler, priority 1989, dated 1994).
pIC50: −log10 of the molar value. Converted amounts (≈) assume the structure as drawn. Like-named read-outs stand apart in the source and are kept apart here.

Columns and labels:
Candida albicans B 2630 = test: Growth inhibition in liquid medium (Sabouraud broth); assay type: cell-based; conditions: B2630, Sabouraud broth, 28° C., 18 hours, read-out: IC 50 (growth-inhibiting concentration of 50%)
Protocol: (§1) A.1 : Study of the antibiotic efficiency of AmB derivatives in liquid medium against different yeasts
(§2) The antibiotic efficiency was tested by the growth inhibition method in liquid medium (Sabouraud broth) in the presence of different concentrations of the derivatives studied.
(§3) A yeast suspension was cultivated in a broth in such a manner that about 1×10^2 cell/ml were obtained.
(§4) The tubes containing the different concentrations of antifungal substance were inoculated with the same amount of yeast cells, and were then incubated at 28° C. for 18 hours with stirring. For each concentration of antifungal substance, two identical tubes were prepared.
(§5) The inhibition of fungal growth corresponding to the different concentrations was evaluated for each molecule by spectrophotometry at 620 nm and expressed in percent with respect to a reference solution without antifungal substance.

Candida albicans = test: as above; assay type: cell-based; conditions: Candida albicans, 18 h, Sabouraud broth, 28° C., 18 hours; read-out: IC 50 (growth-inhibiting concentration of 50%)
Protocol: as §1, §2, §3, §4, §5

Cryptoccocus neoformans = test: as above; assay type: cell-based; conditions: 18 h, Sabouraud broth, 28° C., 18 hours; read-out: IC 50 (growth-inhibiting concentration of 50%)
Protocol: as §1, §2, §3, §4, §5

Pytirosporum orbiculare = test: as above; assay type: cell-based; conditions: Sabouraud broth, 28° C., 18 hours; read-out: IC 50 (growth-inhibiting concentration of 50%)
Protocol: as §1, §2, §3, §4, §5

Saccharomyces cerevisiae = test: as above; assay type: cell-based; conditions: Saccharomyces cerevisiae, 18 h, Sabouraud broth, 28° C., 18 hours; read-out: IC 50 (growth-inhibiting concentration of 50%)
Protocol: as §1, §2, §3, §4, §5

Aspergillus flavus = test: Diffusion method in agar-agar medium (Sabouraud agar-agar); assay type: cell-based; conditions: Sabouraud agar-agar, disc diameter 1 cm, 0.1 ml
Protocol: (§6) A.2 : Study of the antibiotic efficiency of amphotericine B derivatives in agar-agar medium against Aspergillus
(§7) The antibiotic activity was tested by the diffusion method in agar-agar medium (Sabouraud agar-agar).
(§8) The efficiency of each molecule was determined by the size of the growth-inhibiting zone around a WHATMAN 3M paper disc impregnated with the antibiotic substance of a given concentration.
(§9) A suspension of Aspergillus spores in a broth was prepared, 0.2 ml of this suspension was used to inoculate at its surface an agar-agar medium which was solidified in such a manner that a homogeneous growth layer was obtained. After spreading, the WHATMAN 3M paper discs (diameter: 1 cm) were placed on the surface of the agar-agar, and then impregnated with 0.1 ml of the antibiotic substance at different concentrations.

Aspergillus fumigatus = test: as above; assay type: cell-based; conditions: Aspergillus fumigatus, Sabouraud agar-agar, disc diameter 1 cm, 0.1 ml; read-out: concentration giving a growth inhibition of 1 cm around a disc in solid medium
Protocol: as §6, §7, §8, §9

[1] = Toxicity on red corpuscles (lysis), mice; assay type: cell-based; conditions: mouse, red blood cells, 37° C., 1 hour 30, read-out: LD 50 (dose which leads to lysis in 50% of the erythrocytes)
Protocol: (§10) B.1: Study of the toxicity on red corpuscles
(§11) All the solutions of the AmB derivatives according to the invention were prepared immediately before use by diluting 4 mg of substance in 100 μl of 5% glucose solution, and then, after 15 minutes protected from light, 100 μl of sterile distilled water are added, and the mixture is made up to stock solutions of 4 mg/ml with a 5% glucose solution. For comparative study of the effects of AmB, 4 mg of FUNGIZONE are diluted with 1 ml of 5% glucose.
(§12) The cells are prepared by placing 1 ml of a peripheral blood sample into a tube together with Ficollhypaque to remove the lymphocytes, and then centrifuging the mixture at 2000 rpm for 20 minutes. The remaining red corpuscles are recovered, washed once with 0.9% NaCl and then twice with 150 Mm KCl, 0.5 Mm tris-HCl, pH 7.4.
(§13) A 1.25% suspension is then prepared with 150 mM KCl solution, 0.5 mM tris-HCl, pH 7.4, and 150 μl thereof are distributed in wells along with 50 μl of each of the dilutions of the derivatives, plus a control well (5% glucose solution).
(§14) The cells are then incubated at 37° C. in a steam cabinet for 1 hour 30.
(§15) To evaluate the cell lysis, haemoglobin is essayed by removing 100 μl of the supernatant in each well and diluting the sample with 1 ml of distilled water.
(§16) The haemoglobin concentration is calculated by measuring the optical density at 540 nm and taking into account the absorption of the derivatives of amphotericine B.
(§17) LD 50 is the dose which leads to lysis in 50% of the erythrocytes (a control of 100% lysis is obtained with distilled water, and reference lysis of 0% is obtained with the 5% glucose solution).

[2] = Toxicity on nucleated cells, mice T lymph gland cells; assay type: cell-based; conditions: mouse, 1 hour 30, trypan blue, read-out: LD 50 (concentration leading to a mortality of 50%)
Protocol: (§18) B.2: Study of the toxicity on nucleated cells
(§19) The solutions of the amphotericine B derivatives are prepared similarly to those mentioned in paragraph B.1.
(§20) The cells are prepared by placing 20 ml of blood diluted to 1/2 with 0.9% NaCl into a tube together with 10 ml of Ficoll-hypaque, and the mixture is centrifuged at 2000 rpm for 30 minutes. The cell nuclei are recovered and washed twice with PBS buffer containing 5% of foetal calf serum.
(§21) The cells are prepared by suspending 1.14×10^6 cells/ml in RPMI 1640 containing 2.5% of foetal calf serum and by filling each well with 150 μl. 50 μl of each dilution of the derivatives are added and also one control (5% glucose solution).
(§22) The cells are then incubated in a steam cabinet at a CO2 concentration of 5% for 1 hour 30 at 37° C. or at ambient temperature.
(§23) To evaluate the toxicity of the derivatives, a cell count in the presence of trypan blue is made, and the LD 50 (concentration of the derivative leading to a mortality of 50%) is calculated with respect to the control (5% glucose solution) for each concentration of each derivative.

[3] = Toxicity on nucleated cells, mice B lymph gland cells; assay type: cell-based; conditions: mouse, 1 hour 30, trypan blue, read-out: LD 50 (concentration leading to a mortality of 50%)
Protocol: as §18, §19, §20, §21, §22, §23

[4] = Toxicity on nucleated cells, mice thymocytes; assay type: cell-based; conditions: mouse, thymocytes, 1 hour 30, trypan blue, read-out: LD 50 (concentration leading to a mortality of 50%)
[5] = Toxicity on nucleated cells, X 63 mice lymphoma B; assay type: cell-based; conditions: mouse, x 63 lymphoma cells, 1 hour 30, trypan blue, read-out: LD 50 (concentration leading to a mortality of 50%)
PBL = test: Toxicity on nucleated cells, human PBL; assay type: cell-based; conditions: 90 min
Protocol: as §18, §19, §20, §21, §22, §23

red corpuscles = test: Toxicity on red corpuscles (lysis), human; assay type: cell-based; conditions: 37° C., 1 hour 30, 90 min, 90 min, read-out: LD 50 (dose which leads to lysis in 50% of the erythrocytes)
Protocol: as §10, §11, §12, §13, §14, §15, §16, §17

[6] = Toxicity on nucleated cells, human bone marrow; assay type: cell-based; conditions: 1 hour 30, trypan blue, read-out: LD 50 (concentration leading to a mortality of 50%)
Protocol: as §18, §19, §20, §21, §22, §23

[7] = Toxicity on nucleated cells, human thymocytes; assay type: cell-based; conditions: 1 hour 30, trypan blue, read-out: LD 50 (concentration leading to a mortality of 50%)
Protocol: as §18, §19, §20, §21, §22, §23

DAUDI (human lymphoma B) = test: Toxicity on nucleated cells, DAUDI human lymphoma B; assay type: cell-based; conditions: 1 hour 30, trypan blue, 90 min, read-out: LD 50 (concentration leading to a mortality of 50%)
[8] = Solubility of the AmB derivatives; assay type: physicochemical; conditions: 5% glucose solution, ambient temperature, up to saturation; read-out: solubility (soluble up to a concentration of)
Protocol: C.2. Solubility of the AmB derivatives according to the present invention
AmB or the derivatives obtained are dissolved at ambient temperature in a 5% glucose solution up to saturation.

Structure (SMILES): C[C@@H]1[C@H](O)[C@@H](C)/C=C/C=C/C=C/C=C/C=C/C=C/C=C/[C@H](O[C@@H]2O[C@H](C)[C@@H](O)[C@H](NCC3(O)O[C@H](C(N)=O)[C@@H](O)[C@@H]3O)[C@@H]2O)C[C@@H]2O[C@](O)(C[C@@H](O)C[C@@H](O)[C@H](O)CC[C@@H](O)C[C@@H](O)CC(=O)O[C@H]1C)C[C@H](O)[C@H]2C(=O)O (stereo partly drawn) [AmB 12 F, 1-amino-1-deoxy-D-arabinoglucuronamidyl-AmB]
- pIC50 (Candida albicans B 2630): 6.62
- pIC50 (Candida albicans): 7.05
- pIC50 (Cryptoccocus neoformans): 7.19
- pIC50 (Pytirosporum orbiculare): 7.02
- pIC50 (Saccharomyces cerevisiae): 5.96
- concentration giving a growth inhibition of 1 cm around a disc in solid medium (Aspergillus flavus): 3 × 10^-4 molarity
- IC (1 cm inhibition zone) (Aspergillus fumigatus): 80 µM
- HC50 at 1.5 h [1]: 20 µM
- CC50 at 1.5 h [2]: 10 µM
- CC50 at 1.5 h [3]: 10 µM
- CC50 at 1.5 h [4]: 4 µM
- CC50 at 1.5 h [5]: > 1000 µM
- CC50 (PBL; human PBL, 1 hour 30, trypan blue, read-out: LD 50 (concentration leading to a mortality of 50%)): > 1000 µM
- CC50 (PBL; human PBLs, AmB 12 derivative, comparison of different catalysts (Table 4), listed as Oxalic acid NMG salt, read-out: LD 50 (the source's name)): > 1000 µM
- HC50 (red corpuscles): 100 µM
- CC50 at 1.5 h [6]: > 1000 µM
- CC50 at 1.5 h [7]: > 300 µM
- CC50 (DAUDI (human lymphoma B)): > 1000 µM

Structure (SMILES): C[C@@H]1[C@H](O)[C@@H](C)/C=C/C=C/C=C/C=C/C=C/C=C/C=C/[C@H](O[C@@H]2O[C@H](C)[C@@H](O)[C@H](NCC3(O)O[C@H](C(N)=O)[C@@H](O)[C@@H]3O)[C@@H]2O)C[C@@H]2O[C@](O)(C[C@@H](O)C[C@@H](O)[C@H](O)CC[C@@H](O)C[C@@H](O)CC(=O)O[C@H]1C)C[C@H](O)[C@H]2C(=O)O (stereo partly drawn) [AmB 12, 1-amino-1-deoxy-D-arabinoglucuronamidyl-AmB]
- solubility [8]: 150 mg/mL (≈ 136 mM)

Structure (SMILES): C[C@@H]1[C@H](O)[C@@H](C)/C=C/C=C/C=C/C=C/C=C/C=C/C=C/[C@H](O[C@@H]2O[C@H](C)[C@@H](O)[C@H](NCC3(O)O[C@H](C(=O)O)[C@@H](O)[C@@H]3O)[C@@H]2O)C[C@@H]2O[C@](O)(C[C@@H](O)C[C@@H](O)[C@H](O)CC[C@@H](O)C[C@@H](O)CC(=O)O[C@H]1C)C[C@H](O)[C@H]2C(=O)O (stereo partly drawn) [AmB 17, 1-amino-1-deoxy-D-arabinoglucuronyl-AmB]
- solubility [8]: 20 mg/mL (≈ 18.2 mM)
